Here are results for 13 compounds from PubChem BioAssay (NCI).

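Step 1: Grow cells in 96-well plates. Step 2: Expose to compound for 48 hours at 5 concentrations. Step 3: Interpolate endpoints linearly; if unreached, use highest concentration. At the GI50, growth is halved. The concentration for full growth arrest is given as TGI.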 Bounds are passed on as bounds.

Common to all, as to experiment: NCI tumour cell line growth inhibition, 48 h
Test [1] deals with UACC-62 melanoma.
Test [2] concerns A498 renal.
Test [3] has as its system SK-MEL-28 melanoma.
Test [4] deals with MALME-3M melanoma.
In test [5] the test system is 786-0 renal.
The subject of test [6] is KM12 colon.
The test system of test [7] is SNB-75 CNS.
Test [8] concerns RXF 393 renal.
Test [9] has as its system HCC-2998 colon.
Test [10] concerns MCF7 breast.

Turning to `Cc1ccccc1C(CCCO)C(=O)O` (stereo not drawn), the TGI in [1], in [2], in [3], in [4], in test [5] and in test [6] was over 100 µM throughout. For the same compound, the TGI in test [7] and in [8] was over 100 µM each time.
In the case of `CCOC(=O)/C(=C/c1ccccn1)C(=O)c1ccccc1`, the TGI in test [1] amounted to 24 µM; in [2], 43.1 µM; in test [3] it was 27.3 µM; in [4] it was 27.3 µM; in test [5] it was 25.9 µM; in [6], 26.4 µM. Further, the TGI in test [9] stood at 31.3 µM; in [7], 27.5 µM; in [8], 24.2 µM.
With `ClCCOCCn1cnc2c(Cl)nc(Cl)nc21`, the GI50 in [1] is 14 µM; in [10] it was 3.57 µM; in test [2] it was 16.2 µM; in test [3] it was 7.09 µM; in test [4], 13.1 µM; in test [5], 19.4 µM. Further, the GI50 in test [6] is 15.9 µM; in test [9], 1.42 µM; in test [7], 13.8 µM. Also, the TGI in test [1] was found to be 27.2 µM; in [10] it was 21.4 µM; in test [2], 32.1 µM; in [3], 20.1 µM; in test [4], 28.2 µM; in test [5], 44 µM. In addition, the TGI was determined as 29.6 µM in test [6], 2.88 µM in [9] and 29.2 µM in [7].
In the case of `CCOC(=O)C1=C(NC)OCC1=O`, the TGI in test [1], in [2], in test [3], in test [4], in test [5] and in test [6] was over 100 µM in each case. Moreover, the TGI in test [9], in [7] and in test [8] was over 100 µM each time.
For the compound `O=C(COc1ccc(/C=C2\Oc3ccccc3C2=O)cc1)Nc1nc2ccccc2s1`, the GI50 in [1] is 42 µM; in [10], 35.6 µM; in test [2] it was 37.1 µM; in [3], 37.5 µM; in test [4], 3.94 µM; in test [5] it was 5.26 µM. The GI50 in [6] is 2.09 µM; in test [9] it was 33.1 µM; in test [7], 1.99 µM. The TGI in test [1] was over 100 µM; in test [10], over 100 µM; in test [2], 94.5 µM; in test [3] it was over 100 µM; in [4], over 100 µM; in [5], 53.3 µM. In addition, the figures for the TGI in test [6], in test [9] and in test [7] were over 100 µM, over 100 µM and over 45.5 µM, respectively.
`N#CC1CC(c2ccccc2)Nc2cc(Cl)ccc2N1` (stereo not drawn): the TGI in test [1], in test [2], in test [3], in test [4], in test [5] and in [6] was over 100 µM in each case. For the same compound, the TGI in test [9] is over 100 µM; in test [7], over 100 µM; in [8], 98.7 µM.
In the case of `CCc1cccc(CC)c1NC(=O)/C(Cl)=C(/Cl)C(=O)O`, the TGI in [1] is over 66.7 µM; in test [2], over 100 µM; in test [3], 50.9 µM; in test [4], 36.7 µM; in test [5], over 56.2 µM; in test [6], over 100 µM. For the same compound, the TGI is over 75.9 µM in test [9], over 81.6 µM in [7] and 47.2 µM in test [8].
Regarding `COc1cc(/C=C2\NC(=O)C(Cc3cc(OC)c(OC)c(C)c3OC)N(C(C)=O)C2=O)c(OC)c(C)c1OC` (stereo not drawn), the TGI in test [1], in test [2], in test [3], in test [4], in test [5] and in [6] was over 100 µM in each case. Besides, the TGI in test [9], in test [7] and in test [8] was over 100 µM each time.
Regarding `COC(=O)C(C(=O)C(=O)Nc1c(Cl)cc([N+](=O)[O-])cc1Cl)c1csc(-n2nc(C3=CCCCC3)cc2-c2ccccc2)n1` (stereo not drawn), the TGI in test [1], in [2], in test [4], in test [5], in test [6] and in test [9] was over 100 µM in each case. Besides, the TGI in test [7] and in test [8] was over 100 µM each time.
Take `OC(c1ccccc1Br)(c1ccccc1Br)C(F)(F)F`: the TGI came to 57.7 µM in [1]; 51.9 µM in test [2]; 95.5 µM in test [3]; 52.3 µM in test [4]; 35.5 µM in test [5]; 30.9 µM in test [6]. Moreover, the results for the TGI in test [9], in test [7] and in test [8] were 6.58 µM, 85.2 µM and 34.5 µM, respectively.
Regarding `CCOC(=O)C1(C)CCC(C(C(=O)O)C(=O)O)CC1=O` (stereo not drawn), the TGI in [1], in test [2], in test [3], in test [4], in test [5] and in test [6] was over 100 µM each time. In addition, the TGI in test [9], in test [7] and in test [8] was over 100 µM each time.
As for `COc1cc(-c2nccc3[nH]c(-c4ccc5cc[nH]c5c4)nc23)cc(OC)c1OC`, the GI50 in test [1] is under 0.01 µM; in [10], 0.0568 µM; in test [4], 1.29 µM; in test [5], under 0.01 µM; in test [6] it was under 0.01 µM; in [9], under 0.01 µM. The GI50 in [7] was under 0.01 µM. The TGI worked out at 2.57 µM in [1]; 2.87 µM in test [10]; 3.2 µM in [4]; 2.03 µM in test [5]; 1.5 µM in test [6]; 1.43 µM in test [9]. The compound further yielded a TGI in test [7] of 6.6 µM.
For the compound `COc1ccc(-c2c(C3=NCCCN3)nnn2-c2ccccc2)cc1`, the TGI in [1], in [2], in [3], in [4], in [5] and in test [6] was over 100 µM each time. Moreover, the TGI in [9], in [7] and in test [8] was over 100 µM in each case.
